These results are taken from US20230203043A1, “NOVEL IMIDAZOPYRAZINE DERIVATIVES” (Hoffmann-La Roche Inc., priority 2020, published 2023).

Counter-ions that a name gives are not always drawn.

The first assay relates to Acinetobacter baumannii ATCC17961. Description: Antimicrobial susceptibility testing: 90% growth inhibitory concentration (IC90) determination in Iso-Sensitest broth, OD600 growth. Type of assay: cell-based. Conditions: Acinetobacter baumannii, ATCC17961, 16 h, read-out: A. baumannii ATCC 17961 IC90 (uM), strain ATCC 17961, OD600 growth over 16 h. The gist of the method:
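Serial twofold dilution, 10 points, e.g. 50–0.097 μM final; ~5×10^(5) CFU/ml; 35±2° C, 16 h; kinetic OD600 every 20 min; IC90 from log-phase inhibition.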
One may read the IC90 as the point of the concentration-response curve where the effect stands at 90%. As to `CCc1cc(Nc2nccn3c(-c4cn(CC5CCOC5)nc4C(F)(F)F)cnc23)ccc1C(=O)NCCOCCN` (stereo not shown) [Example 307, N-[2-(2-aminoethoxy)ethyl]-2-ethyl-4-[[3-[1-(oxolan-3-ylmethyl)-3-(trifluoromethyl)pyrazol-4-yl]imidazo[1,2-a]pyrazin-8-yl]amino]benzamide formate], the IC90 is 0.514 µM. Consider `CCc1cc(Nc2nccn3c(-c4cn(C)nc4C(F)(F)F)cnc23)ccc1C(=O)NCCNC(=O)[C@@H]1C[C@@H](O)CN1` [Example 445, (2S,4R)-N-[2-[[2-ethyl-4-[[3-[1-methyl-3-(trifluoromethyl)pyrazol-4-yl]imidazo[1,2-a]pyrazin-8-yl]amino]benzoyl]amino]ethyl]-4-hydroxypyrrolidine-2-carboxamide formate], for which the IC90 is 1.48 µM. Same read-out and setting: the result for `O=C(CC1CCNCC1)N1CCN(C(=O)c2ccc(Nc3nccn4c(-c5c[nH]nc5C(F)(F)F)cnc34)cc2Cl)CC1` [Example 570, 1-(4-(2-chloro-4-((3-(3-(trifluoromethyl)-1H-pyrazol-4-yl)imidazo[1,2-a]pyrazin-8-yl)amino)benzoyl)piperazin-1-yl)-2-(piperidin-4-yl) ethan-1-one formate] reads 0.256 µM; that for `CCc1cc(Nc2nccn3c(-c4c[nH]nc4C(F)(F)F)cnc23)ccc1C(=O)NCCNC(=O)CCN` [Example 220, N-[2-(3-aminopropanoylamino)ethyl]-2-ethyl-4-[[3-[3-(trifluoromethyl)-1H-pyrazol-4-yl]imidazo[1,2-a]pyrazin-8-yl]amino]benzamide formate], 0.51 µM. As to `CCc1cc(Nc2nccn3c(-c4cn(CC#N)nc4C(F)(F)F)cnc23)ccc1C(=O)N1CCC(O)(CNC)CC1` [Example 219, 2-[4-[8-[3-ethyl-4-[4-hydroxy-4-(methylaminomethyl)piperidine-1-carbonyl]anilino]imidazo[1,2-a]pyrazin-3-yl]-3-(trifluoromethyl)pyrazol-1-yl]acetonitrile formate], the IC90 worked out at 0.599 µM. Same read-out and setting: the value for `Cc1cc(Cn2cc(-c3cnc4c(Nc5ccc(C(=O)N6CCNCC6)c(Cl)c5)nccn34)c(C(F)(F)F)n2)n[nH]1` [Example 118, [2-chloro-4-[[3-[1-[(5-methyl-1H-pyrazol-3-yl)methyl]-3-(trifluoromethyl)pyrazol-4-yl]imidazo[1,2-a]pyrazin-8-yl]amino]phenyl]-piperazin-1-ylmethanone formate] was 0.343 µM. For `Cc1cc(Nc2nccn3c(-c4cn(C)nc4C(F)(F)F)cnc23)ccc1C(=O)N1CCN(C(=O)[C@@H]2C[C@](C)(O)CN2)CC1` [Example 472, formic acid; [4-[(2S,4S)-4-hydroxy-4-methylpyrrolidine-2-carbonyl]piperazin-1-yl]-[2-methyl-4-[[3-[1-methyl-3-(trifluoromethyl)pyrazol-4-yl]imidazo[1,2-a]pyrazin-8-yl]amino]phenyl]methanone], the IC90 turned out to be 1.24 µM. On to `CCc1cc(Nc2nccn3c(-c4cn(CC)nc4C(F)(F)F)cnc23)ccc1C(=O)NCCOCCN` [Example 31, N-[2-(2-aminoethoxy)ethyl]-2-ethyl-4-[[3-[1-ethyl-3-(trifluoromethyl)pyrazol-4-yl]imidazo[1,2-a]pyrazin-8-yl]amino]benzamide formate], for which the IC90 came out at 0.175 µM.

Staying with this assay, now noted: Acinetobacter baumannii, ATCC17961, 16 h, strain ATCC 17961, OD600 growth over 16 h, read-out: A. baumannii ATCC 17961 IC90.
With `CNC(=O)c1ccc(Nc2nccn3c(-c4cn(C(F)F)nc4C(F)(F)F)cnc23)cc1Cl` [Example 10, 2-chloro-4-[[3-[1-(difluoromethyl)-3-(trifluoromethyl)pyrazol-4-yl]imidazo[1,2-a]pyrazin-8-yl]amino]-N-methylbenzamide], the IC90 was 0.458 µM. As for `Cc1cc(Nc2nccn3c(-c4cn(CC#N)nc4C(F)(F)F)cnc23)ccc1C(=O)NCC(=O)N[C@H]1CCNC1` [Example 780, 4-[[3-[1-(cyanomethyl)-3-(trifluoromethyl)pyrazol-4-yl]imidazo[1,2-a]pyrazin-8-yl]amino]-2-methyl-N-[2-oxo-2-[[(3S)-pyrrolidin-3-yl]amino]ethyl] benzamide formate], the IC90 was found to be 1.06 µM. Regarding `CCc1cc(Nc2nccn3c(-c4c[nH]nc4C(F)(F)F)cnc23)ccc1C(=O)NCCNC(=O)[C@H]1C[C@H](N)C1` [Example 567, N-(2-((1r,3r)-3-aminocyclobutane-1-carboxamido)ethyl)-2-ethyl-4-((3-(3-(trifluoromethyl)-1H-pyrazol-4-yl)imidazo[1,2-a]pyrazin-8-yl)amino) benzamide formate], the IC90 stood at 0.476 µM.

In the case of `O=C(c1ccc(Nc2nccn3c(-c4c[nH]nc4C(F)(F)F)cnc23)cc1Cl)N1CCN(C(=O)[C@]2(O)CCCNC2)CC1` [Example 247, [2-chloro-4-[[3-[3-(trifluoromethyl)-1H-pyrazol-4-yl]imidazo[1,2-a]pyrazin-8-yl]amino]phenyl]-[4-[(3S)-3-hydroxypiperidine-3-carbonyl]piperazin-1-yl]methanone], the IC90 was 0.116 µM.

Take `NCCCC(=O)NCCNC(=O)c1ccc(Nc2nccn3c(-c4c[nH]nc4C(F)(F)F)cnc23)cc1Cl` [Example 300, N-[2-(4-aminobutanoylamino)ethyl]-2-chloro-4-[[3-[3-(trifluoromethyl)-1H-pyrazol-4-yl]imidazo[1,2-a]pyrazin-8-yl]amino]benzamide]: the IC90 was determined as 0.905 µM.

Turning to `CCc1cc(Nc2nccn3c(-c4c[nH]nc4C(F)(F)F)cnc23)ccc1C(=O)N[C@H](C)CNC(=O)[C@@H]1CCCN1` [Example 762, (S)-N-((R)-2-(2-ethyl-4-((3-(3-(trifluoromethyl)-1H-pyrazol-4-yl)imidazo[1,2-a]pyrazin-8-yl)amino)benzamido)propyl) pyrrolidine-2-carboxamide], the IC90 is 0.722 µM. In the case of `CNC(=O)c1ccc(Nc2nccn3c(-c4c[nH]nc4C(F)(F)F)cnc23)cc1Cl` [Example 388, 2-chloro-N-methyl-4-[[3-[3-(trifluoromethyl)-1H-pyrazol-4-yl]imidazo[1,2-a]pyrazin-8-yl]amino]benzamide], the IC90 was found to be 0.337 µM. In the case of `C#CCn1cc(-c2cnc3c(Nc4ccc(C(=O)N5CCN(C(=O)[C@@H](C)N)CC5)c(CC)c4)nccn23)c(C(F)F)n1` [Example 747, (R)-2-amino-1-(4-(4-((3-(3-(difluoromethyl)-1-(prop-2-yn-1-yl)-1H-pyrazol-4-yl)imidazo[1,2-a]pyrazin-8-yl)amino)-2-ethylbenzoyl)piperazin-1-yl)propan-1-one], the IC90 came out at 0.598 µM.

Staying with this assay, now noted: strain ATCC 17961, OD600 growth over 16 h, read-out: A. baumannii ATCC 17961 IC90.
On to `CCc1cc(Nc2nccn3c(-c4cn(CCC(F)(F)F)nc4C(F)(F)F)cnc23)ccc1C(=O)NCCOCCN` [Example 32, N-[2-(2-aminoethoxy)ethyl]-2-ethyl-4-[[3-[3-(trifluoromethyl)-1-(3,3,3-(trifluoropropyl)pyrazol-4-yl]imidazo[1,2-a]pyrazin-8-yl]amino]benzamide formate], for which the IC90 came to 0.19 µM.

Turning to `C=CCn1cc(-c2cnc3c(Nc4ccc(C(=O)NCCCN)c(CC)c4)nccn23)c(C(F)(F)F)n1` [Example 48, N-(3-aminopropyl)-2-ethyl-4-[[3-[1-prop-2-enyl-3-(trifluoromethyl)pyrazol-4-yl]imidazo[1,2-a]pyrazin-8-yl]amino] benzamide], the IC90 came to 0.117 µM. On to `N#CCn1cc(-c2cnc3c(Nc4ccc(C(=O)N5CCN(C(=O)NCCN)CC5)c(Cl)c4)nccn23)c(C(F)(F)F)n1` [Example 264, N-(2-aminoethyl)-4-[2-chloro-4-[[3-[1-(cyanomethyl)-3-(trifluoromethyl)pyrazol-4-yl]imidazo[1,2-a]pyrazin-8-yl]amino]benzoyl] piperazine-1-carboxamide formate], for which the concentration for an effect of 90% (IC90) came out at 0.451 µM.
